Laboratory results from US10961238B2, “Modulators of hedgehog (Hh) signaling pathway” (E-THERAPEUTICS PLC, priority 2016, dated 2021).

Test system: C3H10T1/2 cells
Assay: C3H assay: differentiation of C3H10T1/2 cells by mSHH, measurement of alkaline phosphatase
Type: cell-based, mouse
Conditions: Mus musculus, C3H 10T1/2; C3H10T1/2 cells stimulated with mSHH for 72 hours; alkaline phosphatase activity; read-out: IC50 Ranges

Compound | IC50 [µM]
Cc1ccc(S(=O)(=O)n2cc(C3=CCN(S(=O)(=O)C4CCN(C(=O)OC(C)(C)C)CC4)CC3)c3cncnc32)cc1 [Compound 235, tert-butyl 4-[[4-[7-(4-methylphenyl)sulfonylpyrrolo[2,3-d]pyrimidin-5-yl]-3,6-dihydro-2H-pyridin-1-yl]sulfonyl] piperidine-1-carboxylate] | 0.1 to 1
CC(C)(C)OC(=O)N1CCC(S(=O)(=O)N2CC=C(c3ccnc4[nH]ccc34)CC2)CC1 [Compound 236, tert-butyl 4-[[4-(1H-pyrrolo[2,3-b]pyridin-4-yl)-3,6-dihydro-2H-pyridin-1-yl]sulfonyl] piperidine-1-carboxylate] | 1 to 10
Cc1ccc(S(=O)(=O)n2ccc3c(C4=CCN(S(=O)(=O)C5CCN(C(=O)OC(C)(C)C)CC5)CC4)ccnc32)cc1 [Compound 237, tert-butyl 4-[[4-[1-(4-methylphenyl)sulfonylpyrrolo [2,3-b]pyridin-dihydro-2H-pyridin-1-yl]sulfonyl]piperidine-1-carboxylate] | 0.1 to 1
CC(C)(C)OC(=O)N1CCC(S(=O)(=O)N2CC=C(c3ncnc4[nH]ccc34)CC2)CC1 [Compound 238, tert-butyl 4-[[4-(7H-pyrrolo[2,3-d]pyrimidin-4-yl)-3,6-dihydro-2H-pyridin-1-yl]sulfonyl] piperidine-l-carboxylate] | 1 to 10
Cc1cc(C#N)ccc1N1CCN(S(=O)(=O)C2CN(C(=O)OC(C)(C)C)C2)CC1 [Compound 240, tert-butyl 3-[4-(4-cyano-2-methylphenyl)piperazin-1-yl]sulfonylaze-tidine-1-carboxylate] | 1 to 10
COC(=O)c1csc(N2CC(S(=O)(=O)N3CCC(c4c[nH]c5ncccc45)CC3)C2)n1 [Compound 241, methyl 2-[3-[4-(1H-pyrrolo[2,3-b]pyridin-3-yl)piperidin-1-yl]sulfonylaze-tidin-1-yl]-1,3-thiazole-4-carboxylate] | 0.1 to 1
N#Cc1ccnc(N2CC(S(=O)(=O)N3CCC(c4c[nH]c5ncccc45)CC3)C2)c1 [Compound 242, 2-[3-[4-(1H-pyrrolo[2,3-b]pyridin-3-yl)piperidin-1-yl]sulfonylaze-tidin-1-yl] pyridine-4-carbonitrile] | 0.01 to 0.1
CCOc1cccc(N2CC(S(=O)(=O)N3CCC(c4c[nH]c5ncccc45)CC3)C2)n1 [Compound 243, 3-[1-[1-(6-ethoxypyridin-2-yl)azetidin-3-yl]sulfonylpiper-idin-4-yl]-1H-pyrrolo[2,3-b]pyridine] | 0.01 to 0.1
COC(=O)c1cnc(N2CC(S(=O)(=O)N3CCC(c4c[nH]c5ncccc45)CC3)C2)s1 [Compound 245, methyl 2-[3-[4-(1H-pyrrolo[2,3-b]pyridin-3-yl)piperidin-1-yl]sulfonylaze-tidin-1-yl]-1,3-thiazole-5-carboxylate] | 0.1 to 1
COC(=O)c1coc(N2CC(S(=O)(=O)N3CCC(c4c[nH]c5ncccc45)CC3)C2)n1 [Compound 246, methyl 2-[3-[4-(1H-pyrrolo[2,3-b]pyridin-3-yl)piperidin-1-yl]sulfonylaze-tidin-1-yl]-1,3-oxazole-4-carboxylate] | 0.1 to 1
CN(C)CC1(CN2CC(S(=O)(=O)N3CCC(c4c[nH]c5ncccc45)CC3)C2)CCCC1 [Compound 247, N,N-dimethyl-1-[1-[[3-[4-(1H-pyrrolo[2,3-b]pyridin-3-yl)piperidin-1-yl]sulfonylaze-tidin-1-yl]methyl]cyclopentyl] methanamine] | 1 to 10
CC(C)[C@H](CO)NC(=O)N1CC(S(=O)(=O)N2CCC(c3c[nH]c4ncccc34)CC2)C1 [Compound 251, N-[(2R)-1-hydroxy-3-methylbutan-2-yl]-3-[4-(1H-pyrrolo[2,3-b]pyridin-3-yl)piperidin-1-yl]sulfonylaze-tidine-1-carboxamide] | 0.01 to 0.1
COc1ccnc(N2CC(S(=O)(=O)N3CCC(c4c[nH]c5ncccc45)CC3)C2)c1C#N [Compound 252, 4-methoxy-2-[3-[4-(1H-pyrrolo [2,3-b]pyridin-3-yl)piperidin-1-yl]sulfonylaze-tidin-1-yl]pyridine-3-carbonitrile] | 0.1 to 1
O=S(=O)(C1CN(c2ncccc2F)C1)N1CCC(c2c[nH]c3ncccc23)CC1 [Compound 253, 3-[1-[1-(3-fluoropyridin-2-yl)azetidin-3-yl]sulfonylpiper-idin-4-yl]-1H-pyrrolo[2,3-b]pyridine] | 0.01 to 0.1
Cc1cccnc1N1CC(S(=O)(=O)N2CCC(c3c[nH]c4ncccc34)CC2)C1 [Compound 254, 3-[1-[1-(3-methylpyridin-2-yl)azetidin-3-yl]sulfonylpiper-idin-4-yl]-1H-pyrrolo[2,3-b]pyridine] | 0.01 to 0.1
CC(C)(O)c1cccnc1N1CC(S(=O)(=O)N2CCC(c3c[nH]c4ncccc34)CC2)C1 [Compound 255, 2-[2-[3-[4-(1H-pyrrolo[2,3-b]pyridin-3-yl)piperidin-1-yl]sulfonylaze-tidin-1-yl]pyridin-3-yl]propan-2-ol] | 0.01 to 0.1
Cc1ccnc(N2CC(S(=O)(=O)N3CCC(c4c[nH]c5ncccc45)CC3)C2)c1 [Compound 257, 3-[1-[1-(4-methylpyridin-2-yl)azetidin-3-yl]sulfonylpiper-idin-4-yl]-1H-pyrrolo[2,3-b]pyridine] | 0.01 to 0.1
N#Cc1ccnc(N2CC(S(=O)(=O)N3CCC(c4ccncc4)CC3)C2)c1 [Compound 258, 2-[3-(4-pyridin-4-ylpiperidin-1-yl)sulfonylaze-tidin-1-yl]pyridine-4-carbonitrile] | 1 to 10

Compound | IC50 [µM]
O=S(=O)(C1CN(c2ncccc2CO)C1)N1CCC(c2ccncc2)CC1 [Compound 259, [2-[3-(4-pyridin-4-ylpiperidin-1-yl)sulfonylaze-tidin-1-yl]pyridin-3-yl]methanol] | 1 to 10
CCOC(=O)c1coc(N2CC(S(=O)(=O)N3CCC(c4ccncc4)CC3)C2)n1 [Compound 260, ethyl 2-[3-(4-pyridin-4-ylpiperidin-1-yl)sulfonylaze-tidin-1-yl]-1,3-oxazole-4-carboxylate] | 1 to 10
NC(=O)c1coc(N2CC(S(=O)(=O)N3CCC(c4ccncc4)CC3)C2)n1 [Compound 261, 2-[3-[[4-(4-pyridyl)-1-piperidyl]sulfonyl]azetidin-1-yl]oxazole-4-carboxamide] | 1 to 10
Cc1noc(C)c1NC(=O)N1CC(S(=O)(=O)N2CCC(c3ccncc3)CC2)C1 [Compound 262, N-(3,5-dimethyl-1,2-oxazol-4-yl)-3-(4-pyridin-4-ylpiperidin-1-yl)sulfonylaze-tidine-1-carboxamide] | 0.1 to 1
CC[C@@H](C)OC(=O)N1CC(S(=O)(=O)N2CCC(c3ccncc3)CC2)C1 [Compound 263, [(2R)-butan-2-yl]3-(4-pyridin-4-ylpiperidin-1-yl)sulfonylaze-tidine-1-carboxylate] | 0.1 to 1
O=C(OC1CCCCC1)N1CC(S(=O)(=O)N2CCC(c3ccncc3)CC2)C1 [Compound 264, cyclohexyl 3-(4-pyridin-4-ylpiperidin-1-yl)sulfonylaze-tidine-1-carboxylate] | 0.1 to 1
O=C(NC1(C(F)(F)F)CC1)N1CC(S(=O)(=O)N2CCC(c3ccncc3)CC2)C1 [Compound 265, 3-(4-pyridin-4-ylpiperidin-1-yl)sulfonyl-N-[1-(trifluoromethyl)-cyclopropyl] azetidine-1-carboxamide] | 0.1 to 1
O=C(OCC1CCCCC1)N1CC(S(=O)(=O)N2CCC(c3ccncc3)CC2)C1 [Compound 266, cyclohexylmethyl 3-(4-pyridin-4-ylpiperidin-1-yl)sulfonylaze-tidine-1-carboxylate] | 0.1 to 1
Cc1ccc(-n2cc(C3CCN(S(=O)(=O)C4CNC4)CC3)c3cccnc32)nc1 [Compound 267, 3-[1-(azetidin-3-ylsulfonyl)piper-idin-4-yl]-1-(5-methylpyridin-2-yl)pyrrolo [2,3-b]pyridine] | 1 to 10
O=S(=O)(C1CN(c2ccccn2)C1)N1CCC(c2ccncc2)CC1 [Compound 268, 2-[3-(4-pyridin-4-ylpiperidin-1-yl)sulfonylaze-tidin-1-yl]pyridine] | 1 to 10
O=S(=O)(C1CN(c2cccnc2)C1)N1CCC(c2c[nH]c3ncccc23)CC1 [Compound 270, 3-[1-(1-pyridin-3-ylazetidin-3-yl)-sulfonylpiper-idin-4-yl]-1H-pyrrolo[2,3-b]pyridine] | 0.1 to 1
CN(C(=O)N1CCC(S(=O)(=O)N2CCC(c3c[nH]c4ncccc34)CC2)C1)C(C)(C)C (stereo not drawn) [Compound 272, N-tert-butyl-N-methyl-3-[4-(1H-pyrrolo[2,3-b]pyridin-3-yl)piperidin-1-yl]sulfonylpyrr olidine-1-carboxamide] | 0.01 to 0.1
COC(=O)[C@H]1C[C@@H](S(=O)(=O)N2CCC(c3c[nH]c4ncccc34)CC2)C1 [Compound 273] | 0.1 to 1
COc1cccc(NC(=O)N2CC(S(=O)(=O)N3CCC(c4c[nH]c5ncccc45)CC3)C2)c1 [Compound 275, N-(3-methoxyphenyl)-3-[4-(1H-pyrrolo[2,3-b]pyridin-3-yl)piperidin-1-yl]sulfonylaze-tidine-1-carboxamide] | 0.1 to 1
Cc1ccc(NC(=O)N2CC(S(=O)(=O)N3CCC(c4c[nH]c5ncccc45)CC3)C2)cc1 [Compound 276, N-(4-methylphenyl)-3-[4-(1H-pyrrolo[2,3-b]pyridin-3-yl)piperidin-1-yl]sulfonylaze-tidine-1-carboxamide] | 0.1 to 1
Cc1ccc(F)cc1NC(=O)N1CC(S(=O)(=O)N2CCC(c3c[nH]c4ncccc34)CC2)C1 [Compound 277, N-(5-fluoro-2-methylphenyl)-3-[4-(1H-pyrrolo[2,3-b]pyridin-3-yl)piperidin-1-yl]sulfonylaze-tidine-1-carboxamide] | 0.01 to 0.1
CN(C(=O)C1CC(S(=O)(=O)N2CCC(c3c[nH]c4ncccc34)CC2)C1)C(C)(C)C (stereo not drawn) [Compound 278, N-tert-butyl-N-methyl-3-[4-(1H-pyrrolo [2,3-b]pyridin-3-yl)piperidin-1-yl]sulfonylcycl obutane-1-carboxamide] | 0.01 to 0.1
COc1cccc(N(C)C(=O)N2CC(S(=O)(=O)N3CCC(c4c[nH]c5ncccc45)CC3)C2)c1 [Compound 279, N-(3-methoxyphenyl)-N-methyl-3-[4-(1H-pyrrolo [2,3-b]pyridin-3-yl)piperidin-1-yl]sulfonylaze-tidine-1-carboxamide] | 1 to 10
